How the values were obtained:
CYP2C9 = molecular target: T1, CYP2C9 (Homo sapiens, UniProt P11712); assay: Substrate depletion with recombinant CYP2C9; format: in vitro ADME
T1 construct: host or cells: insect cells (membranes)
Method: (§1) Relative CYP activities were determined from the ratio of the depletion rate constant for each isoform relative to that for CYP3A4. […] Eight 100 μL aliquots each were removed over a period of 70 to 90 minutes and added to 100 μL of a 0.1 μM solution of an internal standard in methanol to quench the enzymatic reaction. The samples were filtered through a high protein-binding capacity filter membrane in a 96-well format. The filtrates were evaporated in a vacuum centrifuge to near dryness, diluted with 125 μL of water, and a 99 μL aliquot was analyzed by reversed phase chromatography/mass spectrometry using selected reaction monitoring. Rate constants were determined from the semi-logarithmic plots of the time versus ratio of the area under the peak for specific transitions of the various substrates and the internal standard. The intrinsic clearance isotope effect was determined from the ratio of the rate constants for the protio- and respective deuterio- forms.

CYP2D6 = molecular target: T2, CYP2D6 (Homo sapiens, UniProt P10635); assay: Substrate depletion with recombinant CYP2D6; format: in vitro ADME
T2 construct: host or cells: insect cells (membranes)
T2 sequence (P10635 whole entry): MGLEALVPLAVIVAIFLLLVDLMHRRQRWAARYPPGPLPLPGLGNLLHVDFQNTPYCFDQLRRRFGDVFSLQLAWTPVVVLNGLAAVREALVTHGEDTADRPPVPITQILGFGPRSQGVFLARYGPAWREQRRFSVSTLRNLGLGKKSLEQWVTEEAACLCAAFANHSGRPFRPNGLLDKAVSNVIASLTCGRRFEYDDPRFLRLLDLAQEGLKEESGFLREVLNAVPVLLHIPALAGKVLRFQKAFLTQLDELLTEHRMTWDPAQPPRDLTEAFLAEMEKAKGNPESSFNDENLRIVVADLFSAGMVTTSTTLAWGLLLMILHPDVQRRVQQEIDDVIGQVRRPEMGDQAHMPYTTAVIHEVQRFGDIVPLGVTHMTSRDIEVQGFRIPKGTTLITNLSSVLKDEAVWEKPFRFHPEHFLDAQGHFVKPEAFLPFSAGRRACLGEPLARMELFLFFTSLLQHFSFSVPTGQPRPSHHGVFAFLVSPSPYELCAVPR
Method: as §1

CYP2C19 = molecular target: T3, CYP2C19 (Homo sapiens, UniProt P33261); assay: Substrate depletion with recombinant CYP2C19; format: in vitro ADME; conditions: for kobs: recombinant CYP2C19, substrate depletion at 1.0 μM, 10 pmol/mL rCYP, 37 °C
T3 construct: host or cells: insect cells (membranes)
T3 sequence (P33261 whole entry): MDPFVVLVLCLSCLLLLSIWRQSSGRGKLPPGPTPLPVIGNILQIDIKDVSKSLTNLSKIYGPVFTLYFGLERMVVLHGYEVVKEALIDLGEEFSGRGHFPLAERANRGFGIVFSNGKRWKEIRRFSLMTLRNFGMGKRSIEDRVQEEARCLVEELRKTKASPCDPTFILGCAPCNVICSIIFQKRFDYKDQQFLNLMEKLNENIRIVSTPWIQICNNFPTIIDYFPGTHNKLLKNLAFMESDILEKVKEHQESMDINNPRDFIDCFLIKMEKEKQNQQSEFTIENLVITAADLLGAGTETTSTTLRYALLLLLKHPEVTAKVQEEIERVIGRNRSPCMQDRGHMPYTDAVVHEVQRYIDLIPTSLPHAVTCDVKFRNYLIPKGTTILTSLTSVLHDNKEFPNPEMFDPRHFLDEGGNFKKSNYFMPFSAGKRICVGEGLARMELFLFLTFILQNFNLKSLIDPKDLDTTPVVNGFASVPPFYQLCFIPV
Method: as §1

[1] = Estimation of Km by the substrate depletion method; format: in vitro ADME; conditions: human, pH 7.4
Method: as §1

CYP1A2 = molecular target: T4, CYP1A2 (Homo sapiens, UniProt P05177); assay: Substrate depletion with recombinant CYP1A2; format: in vitro ADME; conditions: for kobs: recombinant CYP1A2, substrate depletion at 1.0 μM, 10 pmol/mL rCYP, 37 °C
T4 construct: host or cells: insect cells (membranes)
T4 sequence (P05177 2-516 limits assumed): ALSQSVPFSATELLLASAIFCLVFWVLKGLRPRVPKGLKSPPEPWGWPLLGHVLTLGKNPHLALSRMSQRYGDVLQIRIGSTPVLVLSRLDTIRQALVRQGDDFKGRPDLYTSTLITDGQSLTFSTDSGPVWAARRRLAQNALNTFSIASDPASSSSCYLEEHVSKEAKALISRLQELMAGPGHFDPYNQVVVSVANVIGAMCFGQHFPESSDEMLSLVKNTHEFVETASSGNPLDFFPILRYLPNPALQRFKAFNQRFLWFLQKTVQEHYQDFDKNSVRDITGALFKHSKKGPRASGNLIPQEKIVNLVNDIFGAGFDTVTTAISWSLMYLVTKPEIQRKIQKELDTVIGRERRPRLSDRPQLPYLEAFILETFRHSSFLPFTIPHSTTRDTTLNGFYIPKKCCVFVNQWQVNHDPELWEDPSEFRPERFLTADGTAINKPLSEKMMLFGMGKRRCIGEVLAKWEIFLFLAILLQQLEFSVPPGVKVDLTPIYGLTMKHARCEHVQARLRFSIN
Method: as §1

CYP2C8 = molecular target: T5, CYP2C8 (Homo sapiens, UniProt P10632); assay: Substrate depletion with recombinant CYP2C8; format: in vitro ADME; conditions: for As % of CYP3A4: recombinant CYP2C8, depletion rate constant relative to CYP3A4
T5 construct: host or cells: insect cells (membranes)
T5 sequence (P10632 1-490): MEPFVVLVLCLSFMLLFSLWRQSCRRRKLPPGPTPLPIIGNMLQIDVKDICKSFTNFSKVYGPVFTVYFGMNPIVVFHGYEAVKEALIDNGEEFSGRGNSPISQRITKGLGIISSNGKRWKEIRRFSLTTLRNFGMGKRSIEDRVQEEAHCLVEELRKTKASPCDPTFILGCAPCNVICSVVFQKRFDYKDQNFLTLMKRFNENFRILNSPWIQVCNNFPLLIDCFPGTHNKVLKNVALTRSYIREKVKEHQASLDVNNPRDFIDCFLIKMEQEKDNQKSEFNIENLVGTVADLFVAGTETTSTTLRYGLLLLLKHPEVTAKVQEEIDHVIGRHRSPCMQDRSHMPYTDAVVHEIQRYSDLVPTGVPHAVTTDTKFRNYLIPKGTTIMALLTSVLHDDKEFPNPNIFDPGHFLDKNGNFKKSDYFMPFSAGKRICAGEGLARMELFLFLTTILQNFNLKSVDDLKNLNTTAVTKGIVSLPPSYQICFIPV
Method: as §1

CYP3A4 = molecular target: T6, CYP3A4 (Homo sapiens, UniProt P08684); format: in vitro ADME; conditions: 1 μM, pH 7.4
T6 construct: host or cells: insect cells (membranes)
T6 sequence (P08684 2-503 limits assumed): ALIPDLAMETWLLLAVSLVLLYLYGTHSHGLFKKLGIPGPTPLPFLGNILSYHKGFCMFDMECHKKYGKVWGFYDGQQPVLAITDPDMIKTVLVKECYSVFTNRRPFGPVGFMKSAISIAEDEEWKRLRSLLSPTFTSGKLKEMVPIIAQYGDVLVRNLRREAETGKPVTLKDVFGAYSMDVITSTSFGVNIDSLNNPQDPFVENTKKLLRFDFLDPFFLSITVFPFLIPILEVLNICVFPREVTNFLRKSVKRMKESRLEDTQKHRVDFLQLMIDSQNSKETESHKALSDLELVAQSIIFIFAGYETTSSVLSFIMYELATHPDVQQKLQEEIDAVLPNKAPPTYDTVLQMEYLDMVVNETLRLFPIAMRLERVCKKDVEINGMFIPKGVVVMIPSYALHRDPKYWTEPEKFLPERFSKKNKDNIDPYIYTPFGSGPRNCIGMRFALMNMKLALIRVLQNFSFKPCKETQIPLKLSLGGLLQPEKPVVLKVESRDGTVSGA
Method: as §1

T1 sequence (P11712 whole entry): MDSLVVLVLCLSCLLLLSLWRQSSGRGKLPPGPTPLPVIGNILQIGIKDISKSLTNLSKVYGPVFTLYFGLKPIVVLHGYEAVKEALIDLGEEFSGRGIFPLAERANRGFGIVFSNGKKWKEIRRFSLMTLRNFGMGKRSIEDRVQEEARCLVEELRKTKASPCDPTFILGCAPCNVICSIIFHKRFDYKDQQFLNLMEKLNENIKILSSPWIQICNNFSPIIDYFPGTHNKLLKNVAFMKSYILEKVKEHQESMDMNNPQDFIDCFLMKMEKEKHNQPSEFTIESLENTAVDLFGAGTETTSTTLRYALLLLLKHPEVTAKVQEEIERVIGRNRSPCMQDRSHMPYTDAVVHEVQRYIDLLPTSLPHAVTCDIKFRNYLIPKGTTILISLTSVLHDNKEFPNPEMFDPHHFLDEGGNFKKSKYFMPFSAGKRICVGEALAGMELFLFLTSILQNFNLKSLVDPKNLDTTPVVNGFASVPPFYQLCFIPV

kobs (CYP2C9; recombinant CYP2C9, substrate depletion at 1.0 μM, 10 pmol/mL rCYP, 37 °C)	kobs (CYP2D6; recombinant CYP2D6, substrate depletion at 1.0 μM, 10 pmol/mL rCYP, 37 °C)	kobs (CYP2C19)	Km [1]	kobs (CYP1A2)	melting point	As % of CYP3A4 (CYP2C8)	kobs (CYP2C8; recombinant CYP2C8, substrate depletion at 1.0 μM, 10 pmol/mL rCYP, 37 °C)	As % of CYP3A4 (CYP2C9; recombinant CYP2C9, depletion rate constant relative to CYP3A4)	As % of CYP3A4 (CYP2D6; recombinant CYP2D6, depletion rate constant relative to CYP3A4)	kobs (CYP3A4)	As % of CYP3A4 (CYP3A4; recombinant enzyme)	As % of CYP3A4 (CYP2C19; recombinant CYP2C19, depletion rate constant relative to CYP3A4)	As % of CYP3A4 (CYP1A2; recombinant CYP1A2, depletion rate constant relative to CYP3A4)	SMILES
0.050 min⁻¹	0.015 min⁻¹	0.071 min⁻¹	> 5 µM	0.009 min⁻¹	132 to 133 °C	0%	0.001 min⁻¹	–	–	–	–	–	–	CCNc1nc2c(c(C(N)=O)n1)CN(C(=O)CCc1ccc(OC(F)(F)F)cc1)CC2 [Compound 1a]
–	–	0.014 min⁻¹	> 5 µM	<0.001 min⁻¹	–	0%	–	0%	0%	0.059 min⁻¹	100%	24%	0%	COc1cccc(-n2nnc(C3CC3)c2C(=O)N(C)c2ccc(C#N)cc2)c1 [Compound 2a]

Source: publication PMC6235261, “Deuterium isotope effects in drug pharmacokinetics II: Substrate-dependence of the reaction mechanism influences outcome for cytochrome P450 cleared drugs” (PLoS ONE, 2018)
